Patent publication US20170260226A1, “3-NITROGEN OR SULPHUR SUBSTITUTED OESTRA-1,3,5(10),16-TETRAENE AKR1C3 INHIBITORS” (BAYER PHARMA AKTIENGESELLSCHAFT, priority 2014, published 2017)

What was measured:
AKR1C3 [1] = target: T1, AKR1C3 (Homo sapiens, UniProt P42330); assay: AKR1C3 inhibition in a cell-based system (HEK293 cells transfected with AKR1C3 expression plasmid, coumberon substrate); parameters: expressed in transfected cells; host or cells: HEK293 cells (ATCC); conditions: mean values; HEK293 cells transfected with AKR1C3, coumberon 6×10^−6M, 3 h; read-out: Cellular AKR1C3 inhibition IC50
T1 sequence (P42330 1-323): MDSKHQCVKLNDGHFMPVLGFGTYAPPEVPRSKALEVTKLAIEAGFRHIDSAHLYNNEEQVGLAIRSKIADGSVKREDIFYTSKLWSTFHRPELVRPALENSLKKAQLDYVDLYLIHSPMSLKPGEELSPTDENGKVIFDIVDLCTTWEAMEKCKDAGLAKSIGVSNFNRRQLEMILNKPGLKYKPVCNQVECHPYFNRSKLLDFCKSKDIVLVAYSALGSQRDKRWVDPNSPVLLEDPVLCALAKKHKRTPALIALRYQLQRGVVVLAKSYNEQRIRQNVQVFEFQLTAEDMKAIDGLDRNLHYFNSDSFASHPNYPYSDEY
Procedure: The inhibition of AKR1C3 by the substances described in this invention was measured in a cell-based assay using coumberon as the substrate for AKR1C3 (Halim, M., Yee, D., J., and Sames, D., J. (2008). Am Chem Soc, 130, 14123-14128 and Yee, D., J., Balsanek, V., Bauman, D., R., Penning, T., M., and Sames, D. (2006), Proc Natl Acad Sci USA 103, 13304-13309) (cf. Example 48).
The cell system used was HEK293 cells (ATCC, USA) (DMEM/F12, 10% FCS, 2 mM L-Glutamine, PSG). The cells were transfected with an AKR1C3 expression plasmid (pCMV6-AC-AKR1C3, GenBank Accession No. NM 003739.4), harvested after 24 hours and subsequently frozen. For assays, the frozen cells were thawed in assay medium (DMEM/F12 w/o phenolred, 0.005% Tween, 10% FCS, 2 mM L-Glutamine, PSG). Cells were seeded at 2500 cells/well into 384-well low volume or 1536-well plates (Greiner Bio-One, Frickenhausen, Germany) that contained 40-50 nl of a 100 fold concentrated compound solution in DMSO. After incubation at room temperature for 15 minutes, coumberon in PBS was added to a final concentration of 6×10^−6M. Following a 3 h incubation at room temperature, the reaction was stopped by lysing the cells with 0.4% Triton X-100. Coumberol fluorescence intensity was measured at 520 nm (excitation 380 nm) with a suitable measuring instrument (Pherastar, BMG). […] The data were normalized (transfected cells+coumberon=0% inhibition; no cells+coumberone=100% inhibition). Substances were usually tested at 11 different concentrations on the same microtiter plate in a range between 96.8 pM to 20 μM (20 μM, 5.9 μM, 1.7 μM, 0.5 μM, 0.15 μM, 44 nM, 12.9 nM, 3.8 nM, 1.1 nM, 0.3 nM and 96.8 pM). The dilutions were carried out on a 100 fold concentrated solution by serial dilution in duplicates. From the obtained data IC50 values were calculated by a 4-parameter fit.

AKR1C3 [2] = target: T1, AKR1C3; assay: AKR1C3 enzyme inhibition assay (coumberone to coumberol fluorescence); format: biochemical; parameters: GST (cleaved yes); made in house; host or cells: E. coli; conditions: mean values; 10 μM NADPH, 0.3 μM coumberone, 3 h at room temperature
Procedure: The AKR1C3-inhibitory action of the substances of this invention was measured in the AKR1C3 assay described in the paragraphs which follow.
Essentially, the enzyme activity is measured by quantifying the coumberol formed from coumberone (Halim, M., Yee, D., J., and Sames, D., J. A., M. (2008). Chem Soc 130, 14123-14128 and Yee, D., J., Balsanek, V., Bauman, D., R., Penning, T., M., and Sames, D. (2006). Proc Natl Acad Sci USA, 103, 13304-13309). In this assay, the increase in the highly fluorescent coumberol can be determined by NADPH (nicotinamide adenine dinucleotide phosphate)-dependent reduction of the nonfluorescent coumberone by AKR1C3.
The enzyme used was recombinant human AKR1C3 (aldo-keto reductase family 1 member C3) (GenBank Accession No. NM_003739). This was expressed as the GST (glutathione S-transferase) fusion protein in E. coli and purified by means of glutathione-Sepharose affinity chromatography. The GST was removed by thrombin digestion with subsequent size exclusion chromatography (Dufort, I., Rheault, P., Huang, X., F., Soucy, P., and Luu-The, V. (1999). Endocrinology,140, 568-574).
For the assay, 40-50 nl of a 100-fold concentrated solution of the test substance in DMSO were pipetted into a black low-volume 384-well microtitre plate (Greiner Bio-One, Frickenhausen, Germany), 2-2.5 μl of a solution of AKR1C3 in assay buffer [50 mM potassium phosphate buffer pH 7, 1 mM DTT, 0.0022% (w/v) Pluronic F-127, 0.01% BSA (w/v) and protease inhibitor cocktail (complete, EDTA-free Protease Inhibitor Cocktail from Roche)] were added and the mixture was incubated for 20 min, in order to enable preliminary binding of the substances to the enzyme prior to the enzyme reaction. Then the enzyme reaction was started by adding 2-2.5 μl of a solution of NADPH and coumberone in assay buffer (final assay concentration was 10 μM NADPH and 0.3 μM coumberone) and the resulting mixture was incubated at room temperature for 3 h. Typical concentrations were depending on the linear range of the enzyme reaction during the reaction time about 1 nM. The reaction was stopped by adding 2 μl of a stop solution consisting of the AKR1C3 inhibitor EM-1404 to a final concentration of 1 μM. Subsequently, the fluorescence of coumberol was measured at 520 nm (excitation at 380 nm) with a suitable measuring instrument (Pherastar, BMG). […] The data were normalized (enzyme+coumberon substrate in assay buffer=0% inhibition; coumberone substrate only in assay buffer=100% inhibition). Substances were usually tested at 11 different concentrations on the same microtiter plate in a range between 96.8 pM to 20 μM (20 μM, 5.9 μM, 1.7 μM, 0.5 μM, 0.15 μM, 44 nM, 12.9 nM, 3.8 nM, 1.1 nM, 0.3 nM and 96.8 pM). The dilutions were carried out on a 100 fold concentrated solution by serial dilution in duplicates. From the obtained data IC50 values were calculated by a 4-parameter fit.

| IC50 (AKR1C3 [1]) | IC50 (AKR1C3 [2]) | SMILES |
| --- | --- | --- |
| 170 nM | 1.6 nM | Cc1cncc(C2=CC[C@H]3[C@@H]4CCc5cc(S(=O)(=O)CCCC(=O)O)ccc5[C@H]4CC[C@]23C)c1 [Example 17, 4-{[17-(5-methylpyridin-3-yl)estra-1,3,5(10),16-tetraen-3-yl]sulfonyl}butanoic acid] |
| 1790 nM | 33.5 nM | Cc1ccncc1C1=CC[C@H]2[C@@H]3CCc4cc(S(=O)(=O)CCCC(=O)O)ccc4[C@H]3CC[C@]12C [Example 18, 4-{[17-(4-methylpyridin-3-yl)estra-1,3,5(10),16-tetraen-3-yl]sulfonyl}butanoic acid] |
| 150 nM | 1.7 nM | C[C@]12CC[C@@H]3c4ccc(S(=O)(=O)CCCC(=O)O)cc4CC[C@H]3[C@@H]1CC=C2c1cncc(Cl)c1 [Example 19, 4-{[17-(5-chloropyridin-3-yl)estra-1,3,5(10),16-tetraen-3-yl]sulfonyl}butanoic acid] |
| 30 nM | 3.2 nM | C[C@]12CC[C@@H]3c4ccc(S(=O)(=O)CCCC(N)=O)cc4CC[C@H]3[C@@H]1CC=C2c1cncc(F)c1 [Example 20, 4-{[17-(5-fluoropyridin-3-yl)estra-1(10),2,4,16-tetraen-3-yl]sulfonyl}butanamide] |
| 40 nM | 5.3 nM | C[C@]12CC[C@@H]3c4ccc(S(=O)(=O)CCCCO)cc4CC[C@H]3[C@@H]1CC=C2c1cncc(F)c1 [Example 21, 4-{[17-(5-fluoropyridin-3-yl)estra-1(10),2,4,16-tetraen-3-yl]sulfonyl}butan-1-ol] |
| 780 nM | 3.8 nM | C[C@]12CC[C@@H]3c4ccc(NC(=O)CCC(=O)O)cc4CC[C@H]3[C@@H]1CC=C2c1cncc(F)c1 [Example 23, 4-{[17-(5-fluoropyridin-3-yl)estra-1(10),2,4,16-tetraen-3-yl]amino}-4-oxobutanoic acid] |

The remaining lines, values behind:

| SMILES | IC50 (AKR1C3 [1]) | IC50 (AKR1C3 [2]) |
| --- | --- | --- |
| CN(CCC(=O)O)S(=O)(=O)c1ccc2c(c1)CC[C@@H]1[C@@H]2CC[C@]2(C)C(c3cncc(F)c3)=CC[C@@H]12 [Example 02, N-{[17-(5-fluoropyridin-3-yl)estra-1(10),2,4,16-tetraen-3-yl]sulfonyl}-N-methyl-beta-alanine] | 380 nM | 3.5 nM |
| CN(CCCO)S(=O)(=O)c1ccc2c(c1)CC[C@@H]1[C@@H]2CC[C@]2(C)C(c3cncc(F)c3)=CC[C@@H]12 [Example 03, 17-(5-fluoropyridin-3-yl)-N-(3-hydroxypropyl)-N-methylestra-1(10),2,4,16-tetraene-3-sulfonamide] | 50 nM | 2.4 nM |
| CN(CCC(=O)O)S(=O)(=O)c1ccc2c(c1)CC[C@@H]1[C@@H]2CC[C@]2(C)C(c3cncnc3)=CC[C@@H]12 [Example 05, N-methyl-N-{[17-(pyrimidin-5-yl)estra-1(10),2,4,16-tetraen-3-yl]sulfonyl}-beta-alanine] | 2710 nM | 91.7 nM |
| Cc1cc(C2=CC[C@H]3[C@@H]4CCc5cc(S(=O)(=O)N(C)CCC(=O)O)ccc5[C@H]4CC[C@]23C)cnn1 [Example 07, N-methyl-N-{[17-(6-methylpyridazin-4-yl)estra-1(10),2,4,16-tetraen-3-yl]sulfonyl}-beta-alanine] | 800 nM | 0.5 nM |
| C[C@]12CC[C@@H]3c4ccc(S(C)(=O)=O)cc4CC[C@H]3[C@@H]1CC=C2c1cncc(F)c1 [Example 08, 17-(5-fluoropyridin-3-yl)-3-(methylsulfonyl)estra-1(10),2,4,16-tetraene] | 80 nM | 4.1 nM |
| COC(=O)CCCS(=O)(=O)c1ccc2c(c1)CC[C@@H]1[C@@H]2CC[C@]2(C)C(c3cncc(F)c3)=CC[C@@H]12 [Example 09, methyl 4-{[17-(5-fluoropyridin-3-yl)estra-1(10),2,4,16-tetraen-3-yl]sulfonyl}butanoate] | 50 nM | 7.7 nM |
| C[C@]12CC[C@@H]3c4ccc(S(=O)(=O)CCCC(=O)O)cc4CC[C@H]3[C@@H]1CC=C2c1cncc(F)c1 [Example 10, 4-{[17-(5-fluoropyridin-3-yl)estra-1(10),2,4,16-tetraen-3-yl]sulfonyl}butanoic acid] | 490 nM | 2.9 nM |
| C[C@]12CC[C@@H]3c4ccc(S(=O)(=O)CCCC(=O)O)cc4CC[C@H]3[C@@H]1CC=C2c1cccnc1 [Example 12, 4-{[17-(pyridin-3-yl)estra-1(10),2,4,16-tetraen-3-yl]sulfonyl}butanoic acid] | 700 nM | 12 nM |
| C[C@]12CC[C@@H]3c4ccc(S(=O)(=O)CCCC(=O)O)cc4CC[C@H]3[C@@H]1CC=C2c1cncc(C(F)(F)F)c1 [Example 14, 4-({17-[5-(trifluoromethyl)pyridin-3-yl]estra-1(10),2,4,16-tetraen-3-yl}sulfonyl)butanoic acid] | 490 nM | 14.3 nM |
| Cc1ccc(C2=CC[C@H]3[C@@H]4CCc5cc(S(=O)(=O)CCCC(=O)O)ccc5[C@H]4CC[C@]23C)cn1 [Example 15, 4-{[17-(6-methylpyridin-3-yl)estra-1,3,5(10),16-tetraen-3-yl]sulfonyl}butanoic acid] | 3180 nM | 73 nM |
| COc1cncc(C2=CC[C@H]3[C@@H]4CCc5cc(S(=O)(=O)CCCC(=O)O)ccc5[C@H]4CC[C@]23C)c1 [Example 16, 4-{[17-(5-methoxypyridin-3-yl)estra-1,3,5(10),16-tetraen-3-yl]sulfonyl}butanoic acid] | 540 nM | 9.7 nM |
